Ends that are not written are not given here.
Key:
[1] = tested on: axotomized retinal ganglion cells (RGCs); test: Optic nerve transection (axotomy): RGC survival at 14 days; assay type: in vivo, rat
Experimental: Optic nerve transection was performed as previously described (Koeberle and Ball 1998; Koeberle and Bahr 2008; Koeberle, Wang et al. 2010; Magharious, D'Onofrio et al. 2011; Magharious, D'Onofrio et al. 2011; Monnier, D'Onofrio et al. 2011). Animals were placed in a stereotaxic frame and anesthetized with Isoflurane (2%; 0.8 L/min oxygen flow rate) delivered through a gas anesthesia mask. Lidocaine eye drops were used to anesthetize the cornea and ophthalmic eye ointment was applied to the cornea to prevent desiccation during surgery. […] In order to allow access to the optic nerve and surrounding dura mater sheath, the eye was rotated laterally by applying traction to the extraocular muscles. The dural sheath surrounding the optic nerve was cut longitudinally, to avoid damaging blood vessels supplying the retina. The optic nerve was gently lifted from the meningeal sheath and transected within 2 mm of the back of the eye. In order to retrogradely label RGCs, gelfoam soaked in 2% Fluorogold (Sigma) was placed over the transected optic nerve stump. The orbital contents were returned to their original location and the initial incision was closed. The optic nerve crush procedure was performed using a similar approach; however, the optic nerve was crushed using fine self-closing forceps for 6 seconds as previously described (Magharious, D'Onofrio et al. 2011; Monnier, D'Onofrio et al. 2011). The orbital contents were then similarly returned to their original location and the initial incision was closed. Following surgery, rats were placed in a recovery cage under a heat lamp and given Ketoprofen to ease post-surgical recovery.
The procedures for intraocular and optic nerve injections have been previously described (Koeberle and Ball 1998; Koeberle and Bahr 2008; Koeberle, Wang et al. 2010; Magharious, D'Onofrio et al. 2011; Magharious, D'Onofrio et al. 2011; Monnier, D'Onofrio et al. 2011). Animals received intraocular injections of each peptide at 3 and 8 days postaxotomy, prior to the onset of RGC apoptosis which occurs at 4-5 days after axotomy. Animals were placed in a stereotaxic frame and anesthetized with isoflurane, delivered through a gas anesthetic mask. The cornea was anesthetized using Alcaine eye drops (Alcon) prior to intraocular injections. A pulled glass micropipette attached to a 10 μl Hamilton syringe via a hydraulic coupling through PEEK tubing was used to deliver 4 μl of a peptide solution (10 mg/ml) into the vitreous chamber of the eye, posterior to the limbus. Care was taken to prevent damage to the lens or anterior structures of the eye. The pipette was held in place for 5 seconds after injection and slowly withdrawn from the eye to prevent reflux. Injections were performed using a surgical microscope in order to visualize pipette entry into the vitreous chamber and confirm delivery of the injected solution.
To directly target RGCs, peptide solutions were injected into the transected optic nerve stump using a 10 microliter Hamilton syringe. A total of 5 microliters of peptide suspension (10 mg/ml) were injected. The majority of the injected fluid will reflux out of the optic nerve during this procedure, so the remaining pool of peptide suspension is left in place when returning the orbital contents to their original positions.
For intraperitoneal injections, 1 ml of saline containing 0.5 mg of dissolved peptide was delivered via a 25 gauge needle attached to a 5 ml syringe, following rapid anesthesia with isoflurane to incapacitate the animal.
For eye drop application of C-terminal peptides, animals were sedated with isoflurane and placed in a stereotaxic frame, in order to reduce the blink reflex. Twenty-five microliters of a peptide suspension (1 mg/ml) was delivered to the surface of the cornea using a micropipetter with a sterile micropipette tip. Eye drops were delivered once per day, on day 1, 2, 3, 4, 5, 6, and day 7 after axotomy. […]

[2] = tested on: middle cerebral artery occlusion (MCAO) in adult rats; test: Thromboembolic middle cerebral artery occlusion (MCAO): brain infarct volume (TTC staining); assay type: in vivo, rat; settings: Arginine 9-mer-conjugated peptides; intravenous (tail-vein) 1 mg/kg; 48 hours after MCAO; relative to control
Experimental: (§1) In order to examine the effects of the peptide therapeutics described herein, a thromboembolic model of middle cerebral artery occlusion that closely mimics human ischemic brain stroke was used: a clotted segment of blood is injected into the origin of the middle cerebral artery to block blood flow in the corresponding vascular territory of the lateral cerebrum (Wang, Yang et al. 2001).
(§2) Following deep isoflurane anesthesia via a nose-cone, fur was shaved from the ventral aspect of the neck. The shaved skin was cleaned twice with alternating applications of Proviodine (iodine detergent solution) and 70% ethanol. Following a final application of Proviodine, the surgical field was draped and a midline incision made in the ventral skin and fascia of the neck. Under an operating microscope, the right common carotid artery (CCA), the right external carotid artery […], and the right internal carotid artery […] were carefully isolated and separated from the adjacent vagus nerve. A 6-0 silk suture was loosely tied at the origin of the ECA, and another suture was used to ligate the ECA distally. A sterile modified PE 10 catheter was introduced into the lumen of the right ECA via a small puncture. Ten microliters of blood was withdrawn into the catheter and retained for 15 minutes to allow formation of a clot. The fresh autologous pre-formed clot was used for MCA occlusion. The right CCA and the right ICA were temporarily clamped using microvascular clips. The PE 50 catheter containing a 20 mm long fibrin rich clot was attached to 100 μl Hamilton syringe and introduced into the lumen of the external carotid artery via a small incision. The suture around the origin of the external carotid artery was tightened around the intraluminal catheter to prevent bleeding, and the microvascular clip on the internal carotid artery was removed. The catheter was gently advanced from the ECA into the lumen of the ICA and upwards to the origin of the middle cerebral artery (a total of 17 mm in distance from the bifurcation of the CCA). At this point, the end of the catheter is 1-2 mm away from the origin of the middle cerebral artery. Over 10 seconds, the clot (3.5 μl volume) was gently injected together with 5 μl of sterile saline within the catheter. The catheter was removed 5 minutes after injection, and the right ECA was ligated at its origin. […]
(§3) 48 hours after MCA occlusion isoflurane anesthetized rats were euthanized by decapitation. […] Infarct volumes were calculated from scanned images of the coronal surfaces of brain slices, using the following formula: Infarct volume=(volume of uninjured hemisphere−(volume of injured hemisphere−measured infarct volume))/volume of uninjured hemisphere)×100. […]

[3] = tested on: middle cerebral artery occlusion (MCAO) in adult rats; test: MCAO: neurological deficits (modified Bederson scoring system); assay type: in vivo, rat; settings: Arginine 9-mer-conjugated peptides; intravenous 1 mg/kg; scored 8, 24 and 48 hours after MCAO; relative to control
Experimental: as §1
as §2, with “origin. Body temperature was maintained at 37° C. with a heating pad for the duration of surgery, after which the surgical field was closed with 4-0 silk sutures. Subcutaneous injections of Buprenorphine (0.05 mg/kg) were administered to minimize post-surgical discomfort.” for “origin.”
Neurological deficits were recorded at 8, 24 and 48 hours after ischemic injury. Neurological deficits were determined using a modified Bederson scoring system. […]

[4] = tested on: middle cerebral artery occlusion (MCAO) in adult rats; test: MCAO: brain edema of the injured hemisphere; assay type: in vivo, rat; settings: Arginine 9-mer-conjugated peptides; intravenous 1 mg/kg; 48 hours after MCAO; relative to control
Experimental: as §1
Following deep isoflurane anesthesia via a nose-cone, fur was shaved from the ventral aspect of the neck. The shaved skin was cleaned twice with alternating applications of Proviodine (iodine detergent solution) and 70% ethanol. Following a final application of Proviodine, the surgical field was draped and a midline incision made in the ventral skin and fascia of the neck. Under an operating microscope, the right common carotid artery (CCA), the right external carotid artery […], and the right internal carotid artery […] were carefully isolated and separated from the adjacent vagus nerve. […]
as §3

[5] = tested on: retinal ganglion cells (RGCs); test: Retinal ischemia (ophthalmic artery ligation): RGC survival at 14 days; assay type: in vivo, rat; settings: ophthalmic vessels ligated 45 minutes; intravenous 500 μg at 1 day and 8 days after injury; 14 days after stroke
Experimental: The approach for temporary retinal ischemia (ophthalmic artery ligation) was similar with a few exceptions. this procedure has been previously described (Tatton, Chalmers-Redman et al. 2001). Since the optic nerve was not damaged in this procedure, RGCs had to be retrogradely labeled prior to ischemia. […] Injections were performed under gas anesthetic in a stereotaxic apparatus. […] Injections were carried out using a 10 μl Hamilton syringe actuated by a computer controlled Picopump (World Precision Instruments). […] The needle was left in place for 10 min after each injection and slowly withdrawn to prevent reflux of the injected solutions up the needle tract. The surgical approach to the optic nerve was identical to that described for optic nerve transection. After a longitudinal cut was made in the meningeal sheath surrounding the optic nerve, the nerve was gently lifted out of the sheath. The meningeal sheath including the ophthalmic artery was then clamped using a calibrated micro-vessel clamp for 45 minutes, after which the clamp was removed to permit vascular reperfusion. […]
Eyes were enucleated, the cornea and lens were removed and the remaining eye cups containing the retinas were fixed in 4% paraformaldehyde at 14 days postaxotomy. […] RGC densities were grouped by retinal eccentricity (inner, middle, outer), and expressed as mean±SEM. […]

[6] = tested on: cultured post-natal cortical neurons; test: Cortical neuron survival after glutamate (crystal violet assay); assay type: cell-based, rat; settings: 5 mM glutamate, 24 hours; increasing volumes of 10 mg/ml peptide stock; relative to control
Experimental: Cortical neuron cultures were made from newborn (P5) rat pups. Cortical samples were triturated 30× using a P1000 pipettor in cold Dubelcco's PBS+glucose. Neurons were plated in 24 well plates coated with poly-d-lysine. 100,000 cells/well were plated in cold Neurobasal A medium+glutamax+penicillin/streptomycin. Cultures were placed in an incubator (37 Celsius, 5% CO2) for 7 days, with half the media changed after 3 days.
After 7 days in culture, the media was replaced with fresh media containing 5 mM glutamate. Experimental samples received various amounts of each peptide, whereas controls received an equivalent volume of PBS (vehicle). After 24 hours, cell survival was quantified using the crystal violet assay: Media was removed from the cells and 200 microliters of 0.2% crystal violet (dissolved in 20% methanol:80% H2O) was added to each well. After 5 minutes, wells were rinsed with distilled water and the plates were dried. Crystal violet was eluted from the cells using 0.1 M sodium citrate in 50% ethanol. 100 microliter samples from each well were then transferred to 96 well plates and absorbance was read at 540 nm. Results were expressed as the relative fold-change in comparison to the control samples that received buffer.

[7] = Arginine 9-mer (R9)-conjugated peptides, eye drops (1 mg/ml, 25 microliters) once per day, days 1-7 after axotomy, 14 days after axotomy
[8] = 14 days postaxotomy, TAT-conjugated peptide, intraocular injection 10 mg/ml at 3 and 8 days

Substance | RGC survival relative to control [1, 7] | brain infarct volume [2] | neurological deficits (Bederson score) [3] | brain edema (swelling) [4] | increase in RGC survival compared to controls [1, 8] [fold] | RGC survival relative to control ([1]; 14 days postaxotomy, TAT-conjugated peptide, intraperitoneal (IP) injections, 500 μg per injection) | RGC survival relative to control ([1]; 14 days postaxotomy, TAT-conjugated peptide, nerve injection) | RGC density as share of the normal density of 2500 cells/mm^2 ([1]; 14 days postaxotomy, TAT-conjugated peptide, nerve injection 10 mg/ml) [%] | increase in RGC survival compared to controls ([1]; 14 days postaxotomy, TAT-conjugated peptide, single nerve injection 10 mg/ml at time of axotomy) [fold] | RGC survival after ischemic (stroke) injury [5] | cortical neuron survival [6]
PTEN: R9 (RRRRRRRRR)-conjugated rat PTEN phosphatase C-terminal peptide DQHSQITKV (SEQ ID NO:1) (RRRRRRRRRDQHSQITKV) | significantly enhanced RGC survival | significantly reduced | significantly reduced neurological deficits |  |  |  |  |  |  |  | 
Kv2.1: R9-conjugated Kv2.1 C-terminal peptide HGSTRDQSI (SEQ ID NO:2) (also: R9 conjugated, site not given here; listed as Homo sapiens) | significantly enhanced RGC survival | significantly reduced | significantly reduced neurological deficits | significantly reduced brain edema |  |  |  |  |  |  | 
iNOS: R9-conjugated iNOS C-terminal peptide LEEPKGTRL (SEQ ID NO:8), MCAO tests (also: R9 conjugated, site not given here; listed as Homo sapiens) |  | significantly reduced | significantly reduced neurological deficits | significantly reduced brain edema | 2 | little or no effect | little or no effect |  |  |  | 
hPTEN: R9-conjugated human PTEN phosphatase C-terminal peptide DQHTQITKV (SEQ ID NO:9) | significantly enhanced RGC survival | significantly reduced | significantly reduced neurological deficits |  |  |  |  |  |  |  | 
TAT-Kv2.1: TAT domain conjugated to Kv2.1 voltage-gated potassium channel C-terminal peptide HGSTRDQSI (SEQ ID NO:2) (also: TAT conjugated, site not given here; listed as Homo sapiens) |  |  |  |  | 3 |  |  | ~80 | 5 | significantly enhanced RGC survival | dose-dependent survival-promoting effect

From patent US10059742B2, “Peptides and methods and uses thereof for preventing retinal disorders” (priority 2012, dated 2018)
